Key:
Assay in all cases: relative viability (nuclei count vs DMSO), 5 days (fraction); higher = more cells survive
Tosedostat + Phenformin = compound: CC(C)C[C@@H](C(=O)N[C@H](C(=O)OC1CCCC1)c1ccccc1)[C@H](O)C(=O)NO [Tosedostat] + N=C(N)NC(=N)NCCc1ccccc1 [Phenformin] (partner 250 µM)
Outline: (§1)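 Relative viability is defined as nuclei in treated wells over nuclei in vehicle wells. Duplicate plates were run and medians reported. Lung cancer cell lines in 1536-well plates were dosed by pin tool one day after seeding, with one drug or with a fixed anchor-drug dose plus five library-drug doses (not always all listed) in √10 steps, and nuclei were counted after 5 days.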

Tosedostat + Trametinib = compound: CC(C)C[C@@H](C(=O)N[C@H](C(=O)OC1CCCC1)c1ccccc1)[C@H](O)C(=O)NO [Tosedostat] + CC(=O)Nc1cccc(-n2c(=O)n(C3CC3)c(=O)c3c(Nc4ccc(I)cc4F)n(C)c(=O)c(C)c32)c1 [Trametinib] (partner 0.02 µM)
Outline: as §1

[1] = compound: CC1=NN=C(O1)C2=NN=C(C=C2)N3CCC(CC3)OC4=C(C=CC(=C4)F)Cl + CC1(C)CCC(c2ccc(Cl)cc2)=C(CN2CCN(c3ccc(C(=O)NS(=O)(=O)c4ccc(N[C@H](CCN5CCOCC5)CSc5ccccc5)c(S(=O)(=O)C(F)(F)F)c4)cc3)CC2)C1 [Navitoclax] (partner 0.5 µM)
Outline: as §1

Tosedostat + Decitabine = compound: CC(C)C[C@@H](C(=O)N[C@H](C(=O)OC1CCCC1)c1ccccc1)[C@H](O)C(=O)NO [Tosedostat] + Nc1ncn([C@H]2C[C@H](O)[C@@H](CO)O2)c(=O)n1 [Decitabine] (partner 2 µM)
Outline: as §1

For NCI-H2228, the relative viability (Tosedostat + Phenformin; first compound 0.02 µM) was 0.334, the relative viability (Tosedostat + Phenformin; first compound 0.06325 µM) was 0.266 and the relative viability (Tosedostat + Phenformin; first compound 0.2 µM) was 0.291. The relative viability (Tosedostat + Phenformin; first compound 0.6325 µM) was 0.244, the relative viability (Tosedostat + Phenformin; first compound 2 µM) was 0.175 and the relative viability (Tosedostat + Trametinib; first compound 0.02 µM) was 0.666. The relative viability (Tosedostat + Trametinib; first compound 0.06325 µM) was 0.57, the relative viability (Tosedostat + Trametinib; first compound 0.2 µM) was 0.466 and the relative viability (Tosedostat + Trametinib; first compound 0.6325 µM) was 0.534. For the same cell line, the relative viability (Tosedostat + Trametinib; first compound 2 µM) was 0.421, the relative viability ([1]; first compound 0.253 µM) was 0.63 and the relative viability ([1]; first compound 0.8 µM) was 0.592. It also gave a relative viability ([1]; first compound 2.53 µM) of 0.756 and a relative viability ([1]; first compound 8 µM) of 0.526.
Cell Line A549 has a relative viability (Tosedostat + Decitabine; first compound 0.02 µM) of 0.264, a relative viability (Tosedostat + Decitabine; first compound 0.06325 µM) of 0.337 and a relative viability (Tosedostat + Decitabine; first compound 0.2 µM) of 0.24. For the same cell line, the relative viability (Tosedostat + Decitabine; first compound 0.6325 µM) was 0.193, the relative viability (Tosedostat + Decitabine; first compound 2 µM) was 0.292 and the relative viability (Tosedostat + Phenformin; first compound 0.02 µM) was 0.154. For the same cell line, the relative viability (Tosedostat + Phenformin; first compound 0.06325 µM) was 0.217, the relative viability (Tosedostat + Phenformin; first compound 0.2 µM) was 0.233 and the relative viability (Tosedostat + Phenformin; first compound 0.6325 µM) was 0.101. It also gave a relative viability (Tosedostat + Phenformin; first compound 2 µM) of 0.116, a relative viability ([1]; first compound 0.253 µM) of 0.778 and a relative viability ([1]; first compound 0.8 µM) of 0.652. For the same cell line, the relative viability ([1]; first compound 2.53 µM) was 0.599 and the relative viability ([1]; first compound 8 µM) was 0.587.
With NCI-H661 the relative viability (Tosedostat + Decitabine; first compound 0.02 µM) was 0.637, the relative viability (Tosedostat + Decitabine; first compound 0.06325 µM) was 0.547 and the relative viability (Tosedostat + Decitabine; first compound 0.2 µM) was 0.535. The relative viability (Tosedostat + Decitabine; first compound 0.6325 µM) was 0.522, the relative viability (Tosedostat + Decitabine; first compound 2 µM) was 0.512 and the relative viability (Tosedostat + Phenformin; first compound 0.02 µM) was 0.259. For the same cell line, the relative viability (Tosedostat + Phenformin; first compound 0.06325 µM) was 0.259, the relative viability (Tosedostat + Phenformin; first compound 0.2 µM) was 0.312 and the relative viability (Tosedostat + Phenformin; first compound 0.6325 µM) was 0.304. For the same cell line, the relative viability (Tosedostat + Phenformin; first compound 2 µM) was 0.265, the relative viability (Tosedostat + Trametinib; first compound 0.02 µM) was 0.688 and the relative viability (Tosedostat + Trametinib; first compound 0.06325 µM) was 0.596. The relative viability (Tosedostat + Trametinib; first compound 0.2 µM) was 0.579, the relative viability (Tosedostat + Trametinib; first compound 0.6325 µM) was 0.613 and the relative viability (Tosedostat + Trametinib; first compound 2 µM) was 0.637.
Cell Line NCI-H358 has a relative viability (Tosedostat + Decitabine; first compound 0.02 µM) of 0.238, a relative viability (Tosedostat + Decitabine; first compound 0.06325 µM) of 0.188 and a relative viability (Tosedostat + Decitabine; first compound 0.2 µM) of 0.143. The relative viability (Tosedostat + Decitabine; first compound 0.6325 µM) was 0.166, the relative viability (Tosedostat + Decitabine; first compound 2 µM) was 0.157 and the relative viability (Tosedostat + Phenformin; first compound 0.02 µM) was 0.387. The relative viability (Tosedostat + Phenformin; first compound 0.06325 µM) was 0.3, the relative viability (Tosedostat + Phenformin; first compound 0.2 µM) was 0.223 and the relative viability (Tosedostat + Phenformin; first compound 0.6325 µM) was 0.219. For the same cell line, the relative viability (Tosedostat + Phenformin; first compound 2 µM) was 0.238, the relative viability (Tosedostat + Trametinib; first compound 0.02 µM) was 0.144 and the relative viability (Tosedostat + Trametinib; first compound 0.06325 µM) was 0.126. It also gave a relative viability (Tosedostat + Trametinib; first compound 0.2 µM) of 0.13, a relative viability (Tosedostat + Trametinib; first compound 0.6325 µM) of 0.113 and a relative viability (Tosedostat + Trametinib; first compound 2 µM) of 0.133.
NCI-H1299 was tested, and the relative viability ([1]; first compound 0.253 µM) was 0.895, the relative viability ([1]; first compound 0.8 µM) was 0.932 and the relative viability ([1]; first compound 2.53 µM) was 0.894. For the same cell line, the relative viability ([1]; first compound 8 µM) was 0.835.
Cell Line SW 900 has a relative viability (Tosedostat + Decitabine; first compound 0.02 µM) of 0.463, a relative viability (Tosedostat + Decitabine; first compound 0.06325 µM) of 0.499 and a relative viability (Tosedostat + Decitabine; first compound 0.2 µM) of 0.405. For the same cell line, the relative viability (Tosedostat + Decitabine; first compound 0.6325 µM) was 0.359, the relative viability (Tosedostat + Decitabine; first compound 2 µM) was 0.415 and the relative viability (Tosedostat + Phenformin; first compound 0.02 µM) was 0.496. The relative viability (Tosedostat + Phenformin; first compound 0.06325 µM) was 0.606, the relative viability (Tosedostat + Phenformin; first compound 0.2 µM) was 0.478 and the relative viability (Tosedostat + Phenformin; first compound 0.6325 µM) was 0.367. The relative viability (Tosedostat + Phenformin; first compound 2 µM) was 0.417, the relative viability (Tosedostat + Trametinib; first compound 0.02 µM) was 0.696 and the relative viability (Tosedostat + Trametinib; first compound 0.06325 µM) was 0.754. The relative viability (Tosedostat + Trametinib; first compound 0.2 µM) was 0.777, the relative viability (Tosedostat + Trametinib; first compound 0.6325 µM) was 0.639 and the relative viability (Tosedostat + Trametinib; first compound 2 µM) was 0.609.
For IA-LM, the relative viability ([1]; first compound 0.253 µM) was 0.131, the relative viability ([1]; first compound 0.8 µM) was 0.137 and the relative viability ([1]; first compound 2.53 µM) was 0.127. It also gave a relative viability ([1]; first compound 8 µM) of 0.12.
With NCI-H650 the relative viability (Tosedostat + Decitabine; first compound 0.02 µM) was 0.291, the relative viability (Tosedostat + Decitabine; first compound 0.06325 µM) was 0.339 and the relative viability (Tosedostat + Decitabine; first compound 0.2 µM) was 0.316. The relative viability (Tosedostat + Decitabine; first compound 0.6325 µM) was 0.319, the relative viability (Tosedostat + Decitabine; first compound 2 µM) was 0.262 and the relative viability (Tosedostat + Phenformin; first compound 0.02 µM) was 0.497. It also gave a relative viability (Tosedostat + Phenformin; first compound 0.06325 µM) of 0.478, a relative viability (Tosedostat + Phenformin; first compound 0.2 µM) of 0.435 and a relative viability (Tosedostat + Phenformin; first compound 0.6325 µM) of 0.442. It also gave a relative viability (Tosedostat + Phenformin; first compound 2 µM) of 0.405, a relative viability (Tosedostat + Trametinib; first compound 0.02 µM) of 1.04 and a relative viability (Tosedostat + Trametinib; first compound 0.06325 µM) of 1.03. The relative viability (Tosedostat + Trametinib; first compound 0.2 µM) was 0.852, the relative viability (Tosedostat + Trametinib; first compound 0.6325 µM) was 0.924 and the relative viability (Tosedostat + Trametinib; first compound 2 µM) was 0.836.
For LCLC-103H, the relative viability (Tosedostat + Decitabine; first compound 0.02 µM) was 0.792, the relative viability (Tosedostat + Decitabine; first compound 0.06325 µM) was 0.745 and the relative viability (Tosedostat + Decitabine; first compound 0.2 µM) was 0.728. It also gave a relative viability (Tosedostat + Decitabine; first compound 0.6325 µM) of 0.763, a relative viability (Tosedostat + Decitabine; first compound 2 µM) of 0.76 and a relative viability (Tosedostat + Phenformin; first compound 0.02 µM) of 0.361. The relative viability (Tosedostat + Phenformin; first compound 0.06325 µM) was 0.308, the relative viability (Tosedostat + Phenformin; first compound 0.2 µM) was 0.323 and the relative viability (Tosedostat + Phenformin; first compound 0.6325 µM) was 0.323. For the same cell line, the relative viability (Tosedostat + Phenformin; first compound 2 µM) was 0.32, the relative viability (Tosedostat + Trametinib; first compound 0.02 µM) was 0.678 and the relative viability (Tosedostat + Trametinib; first compound 0.06325 µM) was 0.682. The relative viability (Tosedostat + Trametinib; first compound 0.2 µM) was 0.713, the relative viability (Tosedostat + Trametinib; first compound 0.6325 µM) was 0.721 and the relative viability (Tosedostat + Trametinib; first compound 2 µM) was 0.779.
For NCI-H1563, the relative viability (Tosedostat + Phenformin; first compound 0.02 µM) was 0.653, the relative viability (Tosedostat + Phenformin; first compound 0.06325 µM) was 0.703 and the relative viability (Tosedostat + Phenformin; first compound 0.2 µM) was 0.662. It also gave a relative viability (Tosedostat + Phenformin; first compound 0.6325 µM) of 0.722 and a relative viability (Tosedostat + Phenformin; first compound 2 µM) of 0.65.
NCI-H1648 was tested, and the relative viability (Tosedostat + Decitabine; first compound 0.02 µM) was 0.389, the relative viability (Tosedostat + Decitabine; first compound 0.06325 µM) was 0.426 and the relative viability (Tosedostat + Decitabine; first compound 0.2 µM) was 0.51. The relative viability (Tosedostat + Decitabine; first compound 0.6325 µM) was 0.421, the relative viability (Tosedostat + Decitabine; first compound 2 µM) was 0.399 and the relative viability (Tosedostat + Trametinib; first compound 0.02 µM) was 0.417. The relative viability (Tosedostat + Trametinib; first compound 0.06325 µM) was 0.447, the relative viability (Tosedostat + Trametinib; first compound 0.2 µM) was 0.476 and the relative viability (Tosedostat + Trametinib; first compound 0.6325 µM) was 0.477. For the same cell line, the relative viability (Tosedostat + Trametinib; first compound 2 µM) was 0.336.

— the supplement of paper PMC10307832
